Activity calls are given as the source filed them. No cut-off for these calls is given here.
Legend:
[1] = target: Transcriptional coactivator YAP1 (Homo sapiens) (UniProt P46937); experiment: Inhibition of YAP1 (unknown origin) assessed as disruption in YAP1/OCT4 interaction at 5 uM by ELISA relative to control
[2] = target: Transcriptional coactivator YAP1 (Homo sapiens) (UniProt P46937); experiment: Inhibition of YAP1 (unknown origin) assessed as disruption in YAP1/OCT4 interaction at 50 uM by cell based assay
[3] = target: Transcriptional coactivator YAP1 (Homo sapiens) (UniProt P46937); experiment: Inhibition of YAP1 in human NCI-H1650 cells assessed as disruption in YAP1/OCT4 interaction at 5 uM incubated for 72 hrs by immunoprecipitation-Westem blot assay; assay type: cell-based
[4] = target: Transcriptional coactivator YAP1 (Homo sapiens) (UniProt P46937); experiment: Inhibition of YAP1 in human A549 cells assessed as disruption in YAP1/OCT4 interaction at 5 uM incubated for 72 hrs by immunoprecipitation-Westem blot assay; assay type: cell-based
NCI-H1650 [5] = experiment: Cytotoxicity in human NCI-H1650 cells assessed as reduction in cell viability at 0.5 to 20 uM incubated for 72 hrs by MTT assay; assay type: functional, cell-based
A549 = experiment: Cytotoxicity in human A549 cells assessed as reduction in cell viability at 0.5 to 20 uM incubated for 72 hrs by MTT assay; assay type: functional, cell-based
[6] = target: Transcriptional coactivator YAP1 (Homo sapiens) (UniProt P46937); experiment: Inhibition of YAP1 in human NCI-H1650 cells assessed as reduction in Sox2 protein expression at 50 uM by luciferase reporter gene assay; assay type: cell-based
NCI-H1650 [7] = experiment: Inhibition of self-renewal capacity in stem-like side-population cells of human NCI-H1650 cells assessed as reduction in number of spheres at 50 uM incubated for 10 days by sphere formation assay relative to control; assay type: functional; settings: NCI-H1650, 240 h
NCI-H1703 [8] = experiment: Cytotoxicity in human NCI-H1703 cells assessed as reduction in cell viability at 0.5 to 20 uM incubated for 96 hrs by MTT assay; assay type: functional, cell-based
NCI-H226 = experiment: Cytotoxicity in human NCI-H226 cells assessed as reduction in cell viability at 0.5 to 20 uM incubated for 96 hrs by MTT assay; assay type: functional, cell-based
NCI-H1650 [9] = experiment: Inhibition of self-renewal capacity in cisplatin insensitive stem-like side-population cells of human NCI-H1650 cells assessed as reduction in number of spheres at 2 uM incubated for 5 days after 7 days cisplatin exposure by sphere formation assay; assay type: functional, cell-based
NCI-H146 [10] = experiment: Inhibition of self-renewal capacity in methotrexate insensitive stem-like side-population cells of human NCI-H146 cells assessed as reduction in number of spheres at 2 uM incubated for 3 days after 7 days methotrexate exposure by sphere formation assay; assay type: functional
HCC827 = experiment: Cytotoxicity in erlotinib-resistant human HCC827 cells assessed as reduction in cell viability at 1 to 20 uM by MTT assay; assay type: functional, cell-based
PC-9 = experiment: Cytotoxicity in gefitinib resistant human PC9 cells assessed as reduction in cell viability at 1 to 20 uM by MTT assay; assay type: functional, cell-based
NCI-H1975 = experiment: Cytotoxicity in gefitinib and erlotinib resistant human NCI-H1975 cells assessed as reduction in cell viability at 1 to 10 uM incubated for 72 hrs by MTT assay; assay type: functional, cell-based
[11] = target: Transcriptional coactivator YAP1 (Homo sapiens) (UniProt P46937); experiment: Inhibition of YAP1 in human NCI-H1650 cells assessed as suppression of Sox2 mRNA expression at 5 to 10 uM incubated for 72 hrs by RT-PCR method; assay type: cell-based
[12] = target: Transcriptional coactivator YAP1 (Homo sapiens) (UniProt P46937); experiment: Inhibition of YAP1 in human NCI-H1703 cells assessed as suppression of Sox2 mRNA expression at 5 to 10 uM incubated for 72 hrs by RT-PCR method; assay type: cell-based
[13] = target: Transcriptional coactivator YAP1 (Homo sapiens) (UniProt P46937); experiment: Inhibition of YAP1 in human NCI-H146 cells assessed as suppression of Sox2 mRNA expression at 5 to 10 uM incubated for 72 hrs by RT-PCR method; assay type: cell-based
NCI-H1650 [14] = experiment: Effect on expression of Oct4 mRNA expression in human NCI-H1650 cells at 5 to 10 uM incubated for 72 hrs by RT-PCR method; assay type: cell-based; settings: nci-h1650, 72 h
NCI-H1650 [15] = experiment: Effect on expression of Nanog mRNA expression in human NCI-H1650 cells at 5 to 10 uM incubated for 72 hrs by RT-PCR method; assay type: cell-based; settings: nci-h1650, 72 h
NCI-H1703 [16] = experiment: Effect on expression of Oct4 mRNA expression in human NCI-H1703 cells at 5 to 10 uM incubated for 72 hrs by RT-PCR method; assay type: cell-based; settings: nci-h1703, 72 h
NCI-H1703 [17] = experiment: Effect on expression of Nanog mRNA expression in human NCI-H1703 cells at 5 to 10 uM incubated for 72 hrs by RT-PCR method; assay type: cell-based; settings: nci-h1703, 72 h
NCI-H146 [18] = experiment: Effect on expression of Oct4 mRNA expression in human NCI-H146 cells at 5 to 10 uM incubated for 72 hrs by RT-PCR method; assay type: cell-based; settings: nci-h146, 72 h
NCI-H146 [19] = experiment: Effect on expression of Nanog mRNA expression in human NCI-H146 cells at 5 to 10 uM incubated for 72 hrs by RT-PCR method; assay type: cell-based; settings: nci-h146, 72 h
[20] = target: Transcriptional coactivator YAP1 (Homo sapiens) (UniProt P46937); experiment: Inhibition of YAP1 in human NCI-H1650 cells assessed as suppression of HK2 mRNA expression at 5 to 10 uM incubated for 72 hrs by RT-PCR method; assay type: cell-based
[21] = target: Transcriptional coactivator YAP1 (Homo sapiens) (UniProt P46937); experiment: Inhibition of YAP1 in human NCI-H1650 cells assessed as suppression of PDK2 mRNA expression at 5 to 10 uM incubated for 72 hrs by RT-PCR method; assay type: cell-based
[22] = target: Transcriptional coactivator YAP1 (Homo sapiens) (UniProt P46937); experiment: Inhibition of YAP1 in human NCI-H1703 cells assessed as suppression of HK2 mRNA expression at 5 to 10 uM incubated for 72 hrs by RT-PCR method; assay type: cell-based
[23] = target: Transcriptional coactivator YAP1 (Homo sapiens) (UniProt P46937); experiment: Inhibition of YAP1 in human NCI-H1703 cells assessed as suppression of PDK2 mRNA expression at 5 to 10 uM incubated for 72 hrs by RT-PCR method; assay type: cell-based
[24] = target: Transcriptional coactivator YAP1 (Homo sapiens) (UniProt P46937); experiment: Inhibition of YAP1 in human NCI-H146 cells assessed as suppression of HK2 mRNA expression at 5 to 10 uM incubated for 72 hrs by RT-PCR method; assay type: cell-based
[25] = target: Transcriptional coactivator YAP1 (Homo sapiens) (UniProt P46937); experiment: Inhibition of YAP1 in human NCI-H146 cells assessed as suppression of PDK2 mRNA expression at 5 to 10 uM incubated for 72 hrs by RT-PCR method; assay type: cell-based
[26] = target: Transcriptional coactivator YAP1 (Homo sapiens) (UniProt P46937); experiment: Inhibition of YAP1 in human NCI-H1650 cells assessed as suppression of PD-L1 mRNA expression at 5 to 10 uM incubated for 72 hrs by RT-PCR method; assay type: cell-based
[27] = target: Transcriptional coactivator YAP1 (Homo sapiens) (UniProt P46937); experiment: Inhibition of YAP1 in human NCI-H1703 cells assessed as suppression of PD-L1 mRNA expression at 5 to 10 uM incubated for 72 hrs by RT-PCR method; assay type: cell-based
NCI-H1650 [28] = experiment: Inhibition of YAP1/TEAD2 interaction in human NCI-H1650 cells assessed as suppression of CTGF mRNA expression at 5 to 10 uM incubated for 72 hrs by RT-PCR method; assay type: cell-based
NCI-H1703 [29] = experiment: Inhibition of YAP1/TEAD2 interaction in human NCI-H1703 cells assessed as suppression of CTGF mRNA expression at 5 to 10 uM incubated for 72 hrs by RT-PCR method; assay type: cell-based
[30] = target: Transcriptional coactivator YAP1 (Homo sapiens) (UniProt P46937); experiment: Inhibition of YAP1 in human NCI-H1650 cells assessed as suppression of fibronectin mRNA expression at 5 to 10 uM incubated for 72 hrs by RT-PCR method; assay type: cell-based
[31] = target: Transcriptional coactivator YAP1 (Homo sapiens) (UniProt P46937); experiment: Inhibition of YAP1 in human NCI-H1650 cells assessed as suppression of vimentin mRNA expression at 5 to 10 uM incubated for 72 hrs by RT-PCR method; assay type: cell-based
[32] = target: Transcriptional coactivator YAP1 (Homo sapiens) (UniProt P46937); experiment: Inhibition of YAP1 in human NCI-H1703 cells assessed as suppression of fibronectin mRNA expression at 5 to 10 uM incubated for 72 hrs by RT-PCR method; assay type: cell-based
[33] = target: Transcriptional coactivator YAP1 (Homo sapiens) (UniProt P46937); experiment: Inhibition of YAP1 in human NCI-H1703 cells assessed as suppression of vimentin mRNA expression at 5 to 10 uM incubated for 72 hrs by RT-PCR method; assay type: cell-based
HUVEC = experiment: Inhibition of angiogenic tubule formation in HUVEC at 1 to 5 uM incubated for 18 to 24 hrs; assay type: functional, cell-based; settings: Homo sapiens
Homo sapiens [34] = organism: Homo sapiens; experiment: Cytotoxicity in human 92-1 cells assessed as reduction in cell viability at 0.5 to 20 uM incubated for 72 hrs by MTT assay; assay type: functional, cell-based
SK-MEL-5 = experiment: Cytotoxicity in human SK-MEL-5 cells assessed as reduction in cell viability at 0.5 to 20 uM incubated for 72 hrs by MTT assay; assay type: functional, cell-based
Homo sapiens [35] = organism: Homo sapiens; experiment: Cytotoxicity in human WM1366 cells assessed as reduction in cell viability at 0.5 to 20 uM incubated for 72 hrs by MTT assay; assay type: functional, cell-based

Chain of Transcriptional coactivator YAP1 (Homo sapiens) (P46937 whole entry): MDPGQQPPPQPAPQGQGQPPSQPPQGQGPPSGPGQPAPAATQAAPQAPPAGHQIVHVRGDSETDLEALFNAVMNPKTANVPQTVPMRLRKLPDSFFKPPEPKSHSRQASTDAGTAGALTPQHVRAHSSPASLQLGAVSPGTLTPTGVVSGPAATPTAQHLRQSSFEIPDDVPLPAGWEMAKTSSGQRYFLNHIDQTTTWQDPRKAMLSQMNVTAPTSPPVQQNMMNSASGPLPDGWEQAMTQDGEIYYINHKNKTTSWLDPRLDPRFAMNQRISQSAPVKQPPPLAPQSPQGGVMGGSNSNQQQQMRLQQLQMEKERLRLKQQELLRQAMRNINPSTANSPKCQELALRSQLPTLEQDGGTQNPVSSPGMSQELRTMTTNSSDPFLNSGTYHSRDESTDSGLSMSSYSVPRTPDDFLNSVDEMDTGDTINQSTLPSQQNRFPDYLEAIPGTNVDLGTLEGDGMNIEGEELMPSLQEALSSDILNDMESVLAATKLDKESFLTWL

O=C(CC1CCN(C(=O)CCc2ccccc2)CC1)N[C@@H](Cc1ccc(OCc2ccccc2)cc1)C(=O)O
inhibition [1]: 95% | inhibition [2]: > 85% | inhibition [3]: Active | inhibition [4]: Active | Activity (NCI-H1650 [5]): Active | Activity (A549): Active | inhibition [6]: 85.3% | inhibition at 50 µM (NCI-H1650 [7]): 72.6% | Activity (NCI-H1703 [8]): Active | Activity (NCI-H226): Active | inhibition (NCI-H1650 [9]): Active | inhibition (NCI-H146 [10]): Active | Activity (HCC827): Active | Activity (PC-9): Active | Activity (NCI-H1975): Active | inhibition [11]: Active | inhibition [12]: Active | inhibition [13]: Active | Activity (NCI-H1650 [14]): Non-Toxic | Activity (NCI-H1650 [15]): Non-Toxic | Activity (NCI-H1703 [16]): Non-Toxic | Activity (NCI-H1703 [17]): Non-Toxic | Activity (NCI-H146 [18]): Non-Toxic | Activity (NCI-H146 [19]): Non-Toxic | inhibition [20]: Active | inhibition [21]: Active | inhibition [22]: Active | inhibition [23]: Active | inhibition [24]: Active | inhibition [25]: Active | inhibition [26]: Active | inhibition [27]: Active | inhibition (NCI-H1650 [28]): inactive | inhibition (NCI-H1703 [29]): inactive | inhibition [30]: Active | inhibition [31]: Active | inhibition [32]: Active | inhibition [33]: Active | inhibition (HUVEC): Active | Activity (Homo sapiens [34]): Active | Activity (SK-MEL-5): Active | Activity (Homo sapiens [35]): Active

From ChEMBL document CHEMBL4419178, “Yap1 inhibitors that target the interaction of yap1 with oct4” (2018)
